Reference: the supplement of paper PMC6045584
± gives the standard deviation of the averaged measurements.

What follows are test systems tested with O=c1[nH]cc(F)c(=O)[nH]1 [FLUOROURACIL] (assay: surviving fraction relative to DMSO-only wells; higher = less growth inhibition). Details: 10 nM; exposure time: 5 days.
How it was run: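 Surviving fraction is CellTiter-Glo luminescence divided by the median of wells given DMSO only. For this, log-phase tumour cell lines went into 384-well plates at 250–500 cells per well and, 24 hours later, into five days of continuous inhibitor exposure at 0.5, 1, 5, 10, 50, 100, 500 and 1000 nM. Lines were screened three times and retained only if replicate Pearson r >0.7 and median Z' >0.3.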

Row | Test System | surviving fraction
1 | MDAMB468 BREAST | 0.89 ± 0.058

Same assay, conditions: 50 nM; exposure time: 5 days

Row | Test System | surviving fraction
2 | SUM149.B1*.S BREAST | 1.04 ± 0.064
3 | 93VU HEADNECK | 0.884 ± 0.082
4 | LM7 BONE | 0.851 ± 0.057
5 | 143B BONE | 1.14 ± 0.17
6 | SUM159 BREAST | 1.073 ± 0.0051
7 | SUM149 BREAST | 0.872 ± 0.071
8 | MDAMB361 BREAST | 0.537 ± 0.042
9 | SAOS2 BONE | 0.826 ± 0.096
10 | ASKA SYNOVIAL | 1.01 ± 0.05
11 | HCC1395 BREAST | 0.945 ± 0.1
12 | HCC1954 BREAST | 0.572 ± 0.11
13 | CME SYNOVIAL | 1.02 ± 0.1
14 | VCAP PROSTATE | 1.05 ± 0.077
15 | YAMATO SYNOVIAL | 0.921 ± 0.061
16 | HCC202 BREAST | 0.966 ± 0.12
17 | HELA CERVIX | 1.01 ± 0.062
18 | SG27 HEADNECK | 1.08 ± 0.087
19 | CAL72 BONE | 1.02 ± 0.037
20 | MDAMB134 BREAST | 0.745 ± 0.094
21 | C33A CERVIX | 1.1 ± 0.055

Row | Test System | surviving fraction
22 | SKBR3 BREAST | 0.792 ± 0.059
23 | MHM BONE | 1.084 ± 0.0067
24 | VP229 BREAST | 0.905 ± 0.068
25 | SYO1 SYNOVIAL | 0.894 ± 0.016
26 | ZR751 BREAST | 1.04 ± 0.12
27 | KPD BONE | 1.05 ± 0.048
28 | SIHA CERVIX | 0.999 ± 0.051
29 | DU4475 BREAST | 1.01 ± 0.16
30 | BT549 BREAST | 0.8 ± 0.06
31 | COLO320DM LARGE INTESTINE | 0.988 ± 0.083
32 | T47D BREAST | 1.02 ± 0.041
33 | H23 LUNG | 1.1 ± 0.061
34 | NCIH441 LUNG | 0.996 ± 0.16
35 | HCT15 LARGE INTESTINE | 0.976 ± 0.069
36 | SCC90 HEADNECK | 0.928 ± 0.087
37 | MDAMB453 BREAST | 0.979 ± 0.035
38 | MG63 BONE | 1.06 ± 0.024
39 | A549 LUNG | 1.11 ± 0.019
40 | MDAMB468 BREAST | 0.881 ± 0.12

Same assay, conditions: 100 nM; exposure time: 5 days

Row | Test System | surviving fraction
41 | SUM149.B1*.S BREAST | 0.962 ± 0.034
42 | 93VU HEADNECK | 0.884 ± 0.0072
43 | LM7 BONE | 0.856 ± 0.077
44 | 143B BONE | 1.12 ± 0.13
45 | SUM159 BREAST | 1.01 ± 0.012
46 | SUM149 BREAST | 0.902 ± 0.063
47 | MDAMB361 BREAST | 0.618 ± 0.027
48 | SAOS2 BONE | 0.8 ± 0.17
49 | ASKA SYNOVIAL | 0.937 ± 0.066
50 | HCC1395 BREAST | 0.955 ± 0.12
51 | HCC1954 BREAST | 0.629 ± 0.063
52 | CME SYNOVIAL | 1.03 ± 0.1
53 | VCAP PROSTATE | 0.998 ± 0.22
54 | YAMATO SYNOVIAL | 0.829 ± 0.046
55 | HCC202 BREAST | 1.15 ± 0.52
56 | HELA CERVIX | 1.06 ± 0.027
57 | SG27 HEADNECK | 1 ± 0.13
58 | CAL72 BONE | 0.944 ± 0.093
59 | MDAMB134 BREAST | 0.744 ± 0.12

Row | Test System | surviving fraction
60 | C33A CERVIX | 1.1 ± 0.06
61 | SKBR3 BREAST | 0.741 ± 0.11
62 | VP229 BREAST | 0.827 ± 0.062
63 | SYO1 SYNOVIAL | 0.872 ± 0.034
64 | ZR751 BREAST | 1.1 ± 0.16
65 | KPD BONE | 1.02 ± 0.051
66 | SIHA CERVIX | 0.957 ± 0.073
67 | DU4475 BREAST | 0.987 ± 0.27
68 | BT549 BREAST | 0.843 ± 0.15
69 | COLO320DM LARGE INTESTINE | 0.863 ± 0.053
70 | T47D BREAST | 0.95 ± 0.04
71 | H23 LUNG | 1.02 ± 0.046
72 | NCIH441 LUNG | 0.95 ± 0.18
73 | HCT15 LARGE INTESTINE | 0.878 ± 0.048
74 | SCC90 HEADNECK | 0.86 ± 0.1
75 | MDAMB453 BREAST | 0.968 ± 0.016
76 | MG63 BONE | 0.99 ± 0.023
77 | A549 LUNG | 1.029 ± 0.0045
78 | MDAMB468 BREAST | 0.816 ± 0.06

Same assay, conditions: 500 nM; exposure time: 5 days

Row | Test System | surviving fraction
79 | SUM149.B1*.S BREAST | 0.909 ± 0.03
80 | 93VU HEADNECK | 0.665 ± 0.062
81 | LM7 BONE | 0.73 ± 0.079
82 | 143B BONE | 1.1 ± 0.12
83 | SUM159 BREAST | 1.03 ± 0.014
84 | SUM149 BREAST | 0.736 ± 0.069
85 | MDAMB361 BREAST | 0.704 ± 0.08
86 | SAOS2 BONE | 0.758 ± 0.11
87 | ASKA SYNOVIAL | 0.919 ± 0.068
88 | HCC1395 BREAST | 0.887 ± 0.053
89 | HCC1954 BREAST | 0.681 ± 0.095
90 | CME SYNOVIAL | 0.931 ± 0.15
91 | VCAP PROSTATE | 0.916 ± 0.17
92 | YAMATO SYNOVIAL | 0.791 ± 0.053
93 | HCC202 BREAST | 0.895 ± 0.3
94 | HELA CERVIX | 1.3 ± 0.035
95 | SG27 HEADNECK | 1.137 ± 0.0093
96 | CAL72 BONE | 0.955 ± 0.16
97 | MDAMB134 BREAST | 0.748 ± 0.0042
98 | C33A CERVIX | 1.02 ± 0.085

Row | Test System | surviving fraction
99 | SKBR3 BREAST | 0.901 ± 0.11
100 | MHM BONE | 1.063 ± 0.0092
101 | VP229 BREAST | 0.773 ± 0.095
102 | SYO1 SYNOVIAL | 0.763 ± 0.034
103 | ZR751 BREAST | 0.974 ± 0.072
104 | KPD BONE | 0.9797 ± 0.0032
105 | SIHA CERVIX | 0.915 ± 0.13
106 | DU4475 BREAST | 1.06 ± 0.081
107 | BT549 BREAST | 0.872 ± 0.084
108 | COLO320DM LARGE INTESTINE | 0.492 ± 0.035
109 | T47D BREAST | 0.855 ± 0.02
110 | H23 LUNG | 1.04 ± 0.044
111 | NCIH441 LUNG | 0.998 ± 0.1
112 | HCT15 LARGE INTESTINE | 0.262 ± 0.013
113 | SCC90 HEADNECK | 0.908 ± 0.064
114 | MDAMB453 BREAST | 0.795 ± 0.026
115 | MG63 BONE | 0.947 ± 0.024
116 | A549 LUNG | 1.05 ± 0.025
117 | MDAMB468 BREAST | 0.859 ± 0.076

Same assay, conditions: 1000 nM; exposure time: 5 days

Row | Test System | surviving fraction
118 | SUM149.B1*.S BREAST | 0.812 ± 0.021
119 | 93VU HEADNECK | 0.882 ± 0.063
120 | LM7 BONE | 0.628 ± 0.083
121 | 143B BONE | 0.929 ± 0.029
122 | SUM159 BREAST | 0.915 ± 0.01
123 | SUM149 BREAST | 0.597 ± 0.057
124 | MDAMB361 BREAST | 0.65 ± 0.061
125 | SAOS2 BONE | 0.598 ± 0.2
126 | ASKA SYNOVIAL | 0.775 ± 0.042
127 | HCC1395 BREAST | 0.947 ± 0.077
128 | HCC1954 BREAST | 0.571 ± 0.018
129 | CME SYNOVIAL | 0.554 ± 0.017
130 | VCAP PROSTATE | 0.939 ± 0.049
131 | YAMATO SYNOVIAL | 0.654 ± 0.028
132 | HCC202 BREAST | 0.866 ± 0.29
133 | HELA CERVIX | 1.15 ± 0.096
134 | SG27 HEADNECK | 1.01 ± 0.043
135 | CAL72 BONE | 0.751 ± 0.16
136 | MDAMB134 BREAST | 0.714 ± 0.016
137 | C33A CERVIX | 1.28 ± 0.055

Row | Test System | surviving fraction
138 | SKBR3 BREAST | 0.787 ± 0.018
139 | MHM BONE | 0.974 ± 0.034
140 | VP229 BREAST | 0.654 ± 0.18
141 | SYO1 SYNOVIAL | 0.616 ± 0.025
142 | ZR751 BREAST | 0.81 ± 0.083
143 | KPD BONE | 0.926 ± 0.022
144 | SIHA CERVIX | 1.02 ± 0.097
145 | DU4475 BREAST | 0.939 ± 0.1
146 | BT549 BREAST | 0.585 ± 0.071
147 | COLO320DM LARGE INTESTINE | 0.347 ± 0.023
148 | T47D BREAST | 0.761 ± 0.028
149 | H23 LUNG | 0.659 ± 0.029
150 | NCIH441 LUNG | 0.798 ± 0.11
151 | HCT15 LARGE INTESTINE | 0.163 ± 0.0084
152 | SCC90 HEADNECK | 0.95 ± 0.08
153 | MDAMB453 BREAST | 0.706 ± 0.009
154 | MG63 BONE | 0.805 ± 0.013
155 | A549 LUNG | 0.554 ± 0.046
156 | MDAMB468 BREAST | 0.706 ± 0.097
